# ChEMBL document CHEMBL1201862, “PubChem BioAssay data set” (2004)
# Activity calls are given as the source filed them. For most assays here, no stated cut-off is given here; in the data, actives have a measured EC50 and inactives only a lower limit.
# Key:
# [1] = luciferase reporter signal suppression in cells – H4 neuroglioma cells, luminescence, dose response (AID 1990); assay type: functional, cell-based
# Exodeoxyribonuclease V = biological target: T1, Exodeoxyribonuclease V (Escherichia coli (strain K12), UniProt P04993+P07648+P08394); experiment: RecBCD inhibition via phage-restricted bacterial growth – absorbance, V66 E. coli, mutant T4 phage, counter-screen for AddAB inhibitor project, dose response (AID 492957); assay type: functional, cell-based, Escherichia coli str. K-12 substr. MG1655
# T1 sequence (P04993 whole entry): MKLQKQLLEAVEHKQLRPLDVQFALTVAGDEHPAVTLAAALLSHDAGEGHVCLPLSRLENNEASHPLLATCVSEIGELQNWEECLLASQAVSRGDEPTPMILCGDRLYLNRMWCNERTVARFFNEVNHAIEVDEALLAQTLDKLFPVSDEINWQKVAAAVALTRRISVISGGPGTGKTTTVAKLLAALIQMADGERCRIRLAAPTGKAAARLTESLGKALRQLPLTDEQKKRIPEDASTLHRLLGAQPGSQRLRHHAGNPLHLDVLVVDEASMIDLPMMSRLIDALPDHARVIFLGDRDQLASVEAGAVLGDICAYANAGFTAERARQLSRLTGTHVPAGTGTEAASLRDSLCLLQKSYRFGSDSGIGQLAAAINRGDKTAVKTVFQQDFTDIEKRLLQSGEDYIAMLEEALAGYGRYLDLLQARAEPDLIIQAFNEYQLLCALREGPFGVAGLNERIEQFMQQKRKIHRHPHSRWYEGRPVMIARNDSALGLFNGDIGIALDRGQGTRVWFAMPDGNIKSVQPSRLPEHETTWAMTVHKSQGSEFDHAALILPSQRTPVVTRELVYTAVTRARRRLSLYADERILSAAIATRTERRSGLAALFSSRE
# T1 sequence (P07648 whole entry): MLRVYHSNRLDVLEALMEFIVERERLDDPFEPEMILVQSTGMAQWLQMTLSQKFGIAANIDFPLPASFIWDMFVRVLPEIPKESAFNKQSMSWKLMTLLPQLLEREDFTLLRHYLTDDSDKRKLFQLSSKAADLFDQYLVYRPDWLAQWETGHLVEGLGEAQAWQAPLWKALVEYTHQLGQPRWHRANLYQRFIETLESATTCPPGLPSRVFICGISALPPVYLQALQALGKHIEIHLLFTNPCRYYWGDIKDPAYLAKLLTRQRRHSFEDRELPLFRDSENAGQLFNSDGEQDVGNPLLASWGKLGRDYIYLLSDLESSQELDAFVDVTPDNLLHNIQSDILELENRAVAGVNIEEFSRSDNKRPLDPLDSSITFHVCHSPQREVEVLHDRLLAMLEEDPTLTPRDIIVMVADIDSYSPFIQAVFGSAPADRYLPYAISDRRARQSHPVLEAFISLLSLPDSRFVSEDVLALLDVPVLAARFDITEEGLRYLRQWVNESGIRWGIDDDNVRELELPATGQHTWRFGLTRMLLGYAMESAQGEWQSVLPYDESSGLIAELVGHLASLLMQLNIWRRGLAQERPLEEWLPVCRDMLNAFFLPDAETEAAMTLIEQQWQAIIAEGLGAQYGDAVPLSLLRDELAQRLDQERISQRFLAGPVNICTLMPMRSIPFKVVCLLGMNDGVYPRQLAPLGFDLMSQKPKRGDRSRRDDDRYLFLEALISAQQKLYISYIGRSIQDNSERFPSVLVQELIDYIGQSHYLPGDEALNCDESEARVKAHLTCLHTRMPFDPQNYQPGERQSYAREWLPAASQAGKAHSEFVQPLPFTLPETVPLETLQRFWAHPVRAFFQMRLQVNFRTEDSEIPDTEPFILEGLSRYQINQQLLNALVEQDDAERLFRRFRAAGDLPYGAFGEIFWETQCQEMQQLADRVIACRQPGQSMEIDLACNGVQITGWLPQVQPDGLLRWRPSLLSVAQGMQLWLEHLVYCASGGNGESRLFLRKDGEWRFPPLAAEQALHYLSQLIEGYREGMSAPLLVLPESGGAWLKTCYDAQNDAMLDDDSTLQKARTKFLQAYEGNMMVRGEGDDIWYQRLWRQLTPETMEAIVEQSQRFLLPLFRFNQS
# T1 sequence (P08394 whole entry): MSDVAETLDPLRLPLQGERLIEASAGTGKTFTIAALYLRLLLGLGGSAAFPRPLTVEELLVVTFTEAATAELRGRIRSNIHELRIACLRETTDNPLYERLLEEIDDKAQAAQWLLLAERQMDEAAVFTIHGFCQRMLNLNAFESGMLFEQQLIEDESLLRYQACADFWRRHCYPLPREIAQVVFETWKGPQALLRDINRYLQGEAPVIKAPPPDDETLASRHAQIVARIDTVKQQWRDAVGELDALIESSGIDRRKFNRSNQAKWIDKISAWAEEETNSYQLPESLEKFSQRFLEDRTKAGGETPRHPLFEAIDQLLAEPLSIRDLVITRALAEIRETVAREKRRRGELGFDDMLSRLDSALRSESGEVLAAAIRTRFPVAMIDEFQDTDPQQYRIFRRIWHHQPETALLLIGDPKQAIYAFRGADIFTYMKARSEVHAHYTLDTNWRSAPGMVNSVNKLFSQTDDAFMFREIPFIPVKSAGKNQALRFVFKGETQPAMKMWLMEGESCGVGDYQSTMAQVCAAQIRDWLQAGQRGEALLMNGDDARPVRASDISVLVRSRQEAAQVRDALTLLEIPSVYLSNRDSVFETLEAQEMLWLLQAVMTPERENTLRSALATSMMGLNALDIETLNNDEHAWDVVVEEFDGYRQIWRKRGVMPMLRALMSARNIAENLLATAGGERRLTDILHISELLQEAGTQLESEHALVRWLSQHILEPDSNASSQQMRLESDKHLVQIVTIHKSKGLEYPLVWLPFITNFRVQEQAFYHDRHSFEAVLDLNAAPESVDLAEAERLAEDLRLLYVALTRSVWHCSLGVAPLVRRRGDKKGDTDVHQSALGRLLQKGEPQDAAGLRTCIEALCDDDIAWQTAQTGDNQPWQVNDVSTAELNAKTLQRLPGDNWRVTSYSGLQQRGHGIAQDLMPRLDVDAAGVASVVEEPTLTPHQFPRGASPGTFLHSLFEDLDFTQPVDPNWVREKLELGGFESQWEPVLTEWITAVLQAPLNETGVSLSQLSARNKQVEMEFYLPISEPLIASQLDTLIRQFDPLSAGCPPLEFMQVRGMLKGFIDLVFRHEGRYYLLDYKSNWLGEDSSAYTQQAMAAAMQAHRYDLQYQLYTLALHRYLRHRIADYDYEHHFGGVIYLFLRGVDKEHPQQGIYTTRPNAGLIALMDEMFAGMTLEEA
# INS1 = experiment: INS-1E survival protection against cytokine death – cell-based, luminescence, retest, dose response (AID 449756); assay type: functional; conditions: Rattus norvegicus;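 further: cell death triggered by IL-1 beta plus TNF-alpha plus IFN-gamma mixture; protective hits raise ATP signal compared with cytokine alone wells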
# [2] = biological target: ATP-dependent molecular chaperone HSP82 (Candida albicans (strain WO-1) (Yeast), UniProt C4YTQ8); experiment: steroid-induced GRE reporter decrease in yeast – S. cerevisiae, luminescence, Hsp90 inhibitor project, dose response (AID 2400); assay type: functional, cell-based;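 further: beta-galactosidase luminescence from glucocorticoid response element reporter as proxy for Hsp90 function; inhibitor potency where signal loss means Hsp90 inhibition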
# Chain of ATP-dependent molecular chaperone HSP82 (C4YTQ8 whole entry): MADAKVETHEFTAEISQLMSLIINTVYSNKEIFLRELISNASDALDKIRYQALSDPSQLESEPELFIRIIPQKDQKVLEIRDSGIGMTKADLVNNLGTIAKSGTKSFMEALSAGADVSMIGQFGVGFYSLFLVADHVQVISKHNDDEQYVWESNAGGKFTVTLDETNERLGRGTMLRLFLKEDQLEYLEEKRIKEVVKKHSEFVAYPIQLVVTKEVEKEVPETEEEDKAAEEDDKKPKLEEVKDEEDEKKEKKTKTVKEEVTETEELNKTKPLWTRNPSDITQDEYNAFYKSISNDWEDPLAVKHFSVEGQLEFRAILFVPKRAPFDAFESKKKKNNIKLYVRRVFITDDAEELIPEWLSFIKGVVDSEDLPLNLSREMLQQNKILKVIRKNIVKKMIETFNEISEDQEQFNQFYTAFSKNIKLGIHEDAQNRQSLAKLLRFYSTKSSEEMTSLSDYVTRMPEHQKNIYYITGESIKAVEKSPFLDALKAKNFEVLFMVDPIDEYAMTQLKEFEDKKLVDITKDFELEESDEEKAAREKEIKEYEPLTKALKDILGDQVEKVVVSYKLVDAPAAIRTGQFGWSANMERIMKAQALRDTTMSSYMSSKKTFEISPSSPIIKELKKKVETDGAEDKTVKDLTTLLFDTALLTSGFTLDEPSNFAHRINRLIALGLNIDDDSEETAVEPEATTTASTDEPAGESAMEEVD
# cells = assay type: functional, cell-based
SMILES,EC50 [1],IC50 (Exodeoxyribonuclease V),AC50 (INS1),EC50 [2],EC50 (cells)
COc1cc(NC(=O)Cn2ncc(Cl)c(Cl)c2=O)c(C)cc1[N+](=O)[O-],8.09 µM (active),–,–,–,–
Cc1ccc(C)c(S(=O)(=O)N2CCN(Cc3ccc(O)c4ncccc34)CC2)c1,–,> 119 µM (inactive),2.48 µM (active),> 160 µM (inactive),7.58 µM (active)
